Earlier results as cited in US6703044B1, “Venlafaxine formulations” (priority 2002, dated 2004).
Counter-ions that a name gives are not always drawn.

Conditions: plural daily dosing regimen

COc1ccc(C(CN(C)C)C2(O)CCCCC2)cc1 (centres unmarked) [venlafaxine hydrochloride, 1-[(2-dimethylamino)-1-(4-methoxyphenyl)ethyl] cyclohexanol]
patients experiencing nausea: about forty five
patients in whom vomiting occurs: about seventeen
